Test results taken from US6409988B1, “Radiolabeled 1-aryl pyrazoles, the synthesis thereof and the use thereof as pest GABA receptor ligands” (3-Dimensional Pharmaceuticals, Inc., priority 1999, dated 2002).

Experiments:
housefly GABA receptor = molecular target: T1, housefly GABA receptor (Musca domestica, UniProt Q75NA5); test: Displacement of 3H-EBOB from the housefly GABA receptor; type: binding
T1 sequence (Q75NA5 30-576): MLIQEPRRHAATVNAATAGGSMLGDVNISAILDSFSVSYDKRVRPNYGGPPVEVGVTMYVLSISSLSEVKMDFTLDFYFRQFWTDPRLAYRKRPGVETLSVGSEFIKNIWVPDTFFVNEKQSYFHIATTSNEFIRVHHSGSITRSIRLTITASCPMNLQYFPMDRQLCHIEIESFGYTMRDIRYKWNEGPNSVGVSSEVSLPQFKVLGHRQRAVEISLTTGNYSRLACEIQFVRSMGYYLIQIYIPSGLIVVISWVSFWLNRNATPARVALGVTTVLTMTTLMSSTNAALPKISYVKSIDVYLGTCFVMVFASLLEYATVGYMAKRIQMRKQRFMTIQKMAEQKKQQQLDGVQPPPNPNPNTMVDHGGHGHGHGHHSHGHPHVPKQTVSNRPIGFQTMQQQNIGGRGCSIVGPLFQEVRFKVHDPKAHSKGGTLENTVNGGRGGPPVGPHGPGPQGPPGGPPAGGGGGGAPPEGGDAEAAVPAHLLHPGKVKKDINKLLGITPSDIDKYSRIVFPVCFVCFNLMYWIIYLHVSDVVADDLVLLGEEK
Description: (§1) Compound 1 binds to the housefly GABA receptor with high affinity (IC50=8 nM, for displacement of 2.6 nM of ^3H-EBOB) and can be radiolabeled at high specific activity (>70 Ci/mmol). These are two highly desirable requirements for a new radioligand.

[1] = Chemical stability of the radioligand; type: physicochemical; conditions: avoids periodic purification steps
Description: as §1

Question: For `[3H]C([3H])([3H])Sc1nn(-c2c(Cl)cc(C(F)(F)F)cc2Cl)c(N)c1C#N` [Compound 1, 4-cyano-1-(2,6-dichloro-4-trifluorophenyl)-3-[^3H3]methylthiopyrazol-5-ylamine], which IC50 (housefly GABA receptor) is on record?
Answer: 8 nM

Question: And the chemical stability [1]?
Answer: chemically stable
